{"source": "patent US10828317B2", "about": "“Method of treating bacterial infections” (priority 2016, dated 2020)", "key": {"S. marescens EN0454": {"tested_on": "S. marescens EN0454", "experiment": "MIC", "assay_type": "cell-based, Serratia marescens", "conditions": "combination FdUrd+trimethoprim+uridine, Table 8"}, "S. epidermidis EN0456": {"tested_on": "S. epidermidis EN0456", "experiment": "MIC", "assay_type": "cell-based, Staphylococcus epidermidis", "conditions": "combination FdUrd+trimethoprim+uridine, Table 8"}, "S. flexneri APV00907": {"tested_on": "S. flexneri APV00907", "experiment": "MIC and antibiogram", "assay_type": "cell-based", "conditions": "combination FdUrd+trimethoprim+uridine, Table 22A", "text": "Inhibition of Heliobacter is important in view of increasing resistance and its association to gastric cancer."}, "E. coli EN003": {"tested_on": "E. coli EN003", "experiment": "microbe, parasite or virus in culture", "assay_type": "cell-based, Escherichia coli", "conditions": "combination FdUrd+trimethoprim+uridine, Table 8"}, "K. pneumoniae EN0145": {"tested_on": "K. pneumoniae EN0145", "experiment": "MIC, KPC-2", "assay_type": "cell-based", "conditions": "combination FdUrd+trimethoprim+uridine, Table 19"}, "E. coli EN001": {"tested_on": "E. coli EN001", "experiment": "MIC, WT (EN001 = EN0001, ATCC 25922)", "assay_type": "cell-based, Escherichia coli", "conditions": "combination FdUrd+trimethoprim+uridine, Table 19"}, "P. aeruginosa EN0460": {"tested_on": "P. aeruginosa EN0460", "experiment": "MIC", "assay_type": "cell-based, Pseudomonas aeruginosa", "conditions": "combination FdUrd+trimethoprim+uridine, Table 8"}, "S. aureus EN008": {"tested_on": "S. aureus EN008", "experiment": "MIC, Gram-positive control", "assay_type": "cell-based, Staphylococcus aureus", "conditions": "combination FdUrd+trimethoprim+uridine, Table 8"}, "M. luteus EN0455": {"tested_on": "M. luteus EN0455", "experiment": "MIC", "assay_type": "cell-based, Micrococcus luteus", "conditions": "combination FdUrd+trimethoprim+uridine, Table 8"}, "A. baumannii EN007": {"tested_on": "A. baumannii EN007", "experiment": "MIC, WT (EN007 = EN0007)", "assay_type": "cell-based, Acinetobacter baumannii", "conditions": "combination FdUrd+trimethoprim+uridine"}, "[1]": {"tested_on": "A. pittii or A. nosocomialis EN0180", "experiment": "MIC", "assay_type": "cell-based, Acinetobacter pittii or nosocomialis", "conditions": "combination FdUrd+trimethoprim+uridine, Table 8"}, "P. mirabilis ST19 EN0445": {"tested_on": "P. mirabilis ST19 EN0445", "experiment": "MIC", "assay_type": "cell-based, Proteus mirabilis", "conditions": "combination FdUrd+trimethoprim+uridine, Table 8"}, "K. pneumoniae EN0244": {"tested_on": "K. pneumoniae EN0244", "experiment": "MIC, colistinR", "assay_type": "cell-based", "conditions": "combination FdUrd+trimethoprim+uridine, Table 19"}, "P. mirabilis EN0457": {"tested_on": "P. mirabilis EN0457", "experiment": "MIC", "assay_type": "cell-based, Proteus mirabilis", "conditions": "combination FdUrd+trimethoprim+uridine, Table 8"}, "P. aeruginosa EN0459": {"tested_on": "P. aeruginosa EN0459", "experiment": "MIC", "assay_type": "cell-based, Pseudomonas aeruginosa", "conditions": "combination FdUrd+trimethoprim+uridine, Table 8"}, "K. pneumoniae EN006": {"tested_on": "K. pneumoniae EN006", "experiment": "MIC, WT (EN006 = EN0006, ATCC 13883)", "assay_type": "cell-based, Klebsiella pneumoniae", "conditions": "combination FdUrd+trimethoprim+uridine"}, "E. coli EN002": {"tested_on": "E. coli EN002", "experiment": "MIC, DtoIC", "assay_type": "cell-based, Escherichia coli", "conditions": "combination FdUrd+trimethoprim+uridine, Table 8"}, "Citrobacter sp. EN0465": {"tested_on": "Citrobacter sp. EN0465", "experiment": "MIC", "assay_type": "cell-based", "conditions": "combination FdUrd+trimethoprim+uridine, Table 8"}, "S. sonnei APV00908": {"tested_on": "S. sonnei APV00908", "experiment": "MIC and antibiogram", "assay_type": "cell-based", "conditions": "combination FdUrd+trimethoprim+uridine, Table 22A"}, "E. coli B EN0458": {"tested_on": "E. coli B EN0458", "experiment": "MIC", "assay_type": "cell-based, Escherichia coli B", "conditions": "combination FdUrd+trimethoprim+uridine, Table 8"}, "E. coli EN0235": {"tested_on": "E. coli EN0235", "experiment": "microbe, parasite or virus in culture", "assay_type": "cell-based", "conditions": "combination FdUrd+trimethoprim+uridine, Table 19"}, "A. baumannii EN016": {"tested_on": "A. baumannii EN016", "experiment": "MIC, WT", "assay_type": "cell-based, Acinetobacter baumannii", "conditions": "combination FdUrd+trimethoprim+uridine, Table 8"}, "E. coli EN0137": {"tested_on": "E. coli EN0137", "experiment": "MIC, ESBL (CTX-M-15)", "assay_type": "cell-based", "conditions": "combination FdUrd+trimethoprim+uridine, Table 19"}, "E. coli EN0136": {"tested_on": "E. coli EN0136", "experiment": "MIC, ESBL (CTX-M-2)", "assay_type": "cell-based", "conditions": "combination FdUrd+trimethoprim+uridine, Table 19"}, "K. pneumoniae EN0249": {"tested_on": "K. pneumoniae EN0249", "experiment": "MIC, colistinR", "assay_type": "cell-based", "conditions": "combination FdUrd+trimethoprim+uridine, Table 19"}, "K. pneumoniae EN0463": {"tested_on": "K. pneumoniae EN0463", "experiment": "MIC", "assay_type": "cell-based, Klebsiella pneumoniae", "conditions": "combination FdUrd+trimethoprim+uridine, Table 8"}, "K. pneumoniae EN0144": {"tested_on": "K. pneumoniae EN0144", "experiment": "MIC, MBL (VIM-1)", "assay_type": "cell-based", "conditions": "combination FdUrd+trimethoprim+uridine, Table 19"}, "K. pneumoniae EN0140": {"tested_on": "K. pneumoniae EN0140", "experiment": "MIC, AmpC (DHA-1)", "assay_type": "cell-based", "conditions": "combination FdUrd+trimethoprim+uridine, Table 19"}, "E. coli EN012": {"tested_on": "E. coli EN012", "experiment": "MIC, WT", "assay_type": "cell-based, Escherichia coli", "conditions": "combination FdUrd+trimethoprim+uridine, Table 8"}, "K. pneumoniae EN0245": {"tested_on": "K. pneumoniae EN0245", "experiment": "MIC, colistinR", "assay_type": "cell-based", "conditions": "combination FdUrd+trimethoprim+uridine, Table 19"}, "P. aeruginosa EN014": {"tested_on": "P. aeruginosa EN014", "experiment": "MIC, WT", "assay_type": "cell-based, Pseudomonas aeruginosa", "conditions": "combination FdUrd+trimethoprim+uridine, Table 8"}, "P. aeruginosa EN0422": {"tested_on": "P. aeruginosa EN0422", "experiment": "MIC", "assay_type": "cell-based, Pseudomonas aeruginosa", "conditions": "combination FdUrd+trimethoprim+uridine, Table 8"}}, "data": [{"smiles": "O=c1[nH]c(=O)n([C@H]2C[C@H](O)[C@@H](CO)O2)cc1F", "note": "[FdUrd, Fluorodeoxyuridine]", "values": [{"measurement": "MIC", "setting": "S. marescens EN0454", "value": ">4", "unit": "µg/mL"}, {"measurement": "MIC", "setting": "S. epidermidis EN0456", "value": "<0.008", "unit": "µg/mL"}, {"measurement": "MIC", "setting": "S. flexneri APV00907", "value": ">4", "unit": "µg/mL"}, {"measurement": "MIC", "setting": "E. coli EN003", "value": 0.016, "unit": "µg/mL"}, {"measurement": "MIC", "setting": "K. pneumoniae EN0145", "value": ">4", "unit": "µg/mL"}, {"measurement": "MIC", "setting": "E. coli EN001", "value": 0.25, "unit": "µg/mL"}, {"measurement": "MIC", "setting": "P. aeruginosa EN0460", "value": ">4", "unit": "µg/mL"}, {"measurement": "MIC", "setting": "S. aureus EN008", "value": "<0.008", "unit": "µg/mL"}, {"measurement": "MIC", "setting": "M. luteus EN0455", "value": 2, "unit": "µg/mL"}, {"measurement": "MIC", "setting": "A. baumannii EN007; Table 8", "value": ">4", "unit": "µg/mL"}, {"measurement": "MIC", "setting": "A. baumannii EN007; Table 19", "value": ">4", "unit": "µg/mL"}, {"measurement": "MIC", "setting": "[1]", "value": 4, "unit": "µg/mL"}, {"measurement": "MIC", "setting": "P. mirabilis ST19 EN0445", "value": 0.5, "unit": "µg/mL"}, {"measurement": "MIC", "setting": "K. pneumoniae EN0244", "value": ">4", "unit": "µg/mL"}, {"measurement": "MIC", "setting": "P. mirabilis EN0457", "value": 1, "unit": "µg/mL"}, {"measurement": "MIC", "setting": "P. aeruginosa EN0459", "value": ">4", "unit": "µg/mL"}, {"measurement": "MIC", "setting": "K. pneumoniae EN006; Table 8", "value": 0.5, "unit": "µg/mL"}, {"measurement": "MIC", "setting": "K. pneumoniae EN006; Table 19", "value": 0.5, "unit": "µg/mL"}, {"measurement": "MIC", "setting": "E. coli EN002", "value": 0.032, "unit": "µg/mL"}, {"measurement": "MIC", "setting": "Citrobacter sp. EN0465", "value": ">4", "unit": "µg/mL"}, {"measurement": "MIC", "setting": "S. sonnei APV00908", "value": ">4", "unit": "µg/mL"}, {"measurement": "MIC", "setting": "E. coli B EN0458", "value": 0.032, "unit": "µg/mL"}, {"measurement": "MIC", "setting": "E. coli EN0235", "value": 0.06, "unit": "µg/mL"}, {"measurement": "MIC", "setting": "A. baumannii EN016", "value": 4, "unit": "µg/mL"}, {"measurement": "MIC", "setting": "E. coli EN0137", "value": ">4", "unit": "µg/mL"}, {"measurement": "MIC", "setting": "E. coli EN0136", "value": 1, "unit": "µg/mL"}, {"measurement": "MIC", "setting": "K. pneumoniae EN0249", "value": ">4", "unit": "µg/mL"}, {"measurement": "MIC", "setting": "K. pneumoniae EN0463", "value": 0.25, "unit": "µg/mL"}, {"measurement": "MIC", "setting": "K. pneumoniae EN0144", "value": ">4", "unit": "µg/mL"}, {"measurement": "MIC", "setting": "K. pneumoniae EN0140", "value": ">4", "unit": "µg/mL"}, {"measurement": "MIC", "setting": "E. coli EN012", "value": 0.032, "unit": "µg/mL"}, {"measurement": "MIC", "setting": "K. pneumoniae EN0245", "value": ">4", "unit": "µg/mL"}, {"measurement": "MIC", "setting": "P. aeruginosa EN014", "value": ">4", "unit": "µg/mL"}, {"measurement": "MIC", "setting": "P. aeruginosa EN0422", "value": ">4", "unit": "µg/mL"}]}]}
